Reference: patent US9226913B2, “Methods of treating cancer using a combination of an immunomodulatory compound and an artemisinin or a derivative thereof” (Celgene Corporation, priority 2010, dated 2016)

Tests used:
Type in all cases: cell-based, human
MCF7 cells = experiment: MTT proliferation assay, 72 hr (Example 6.2); conditions: Homo sapiens, MCF7, 72 h, mean ± SD of at least five experiments
Description: (§1) The human cancer cell lines; MCF7 (breast), HCT116 (colon) and A549 (lung) (Cancer Research UK, London, UK), were grown in either DMEM (Sigma) or RPMI (Sigma) media supplemented with 10% foetal bovine serum, 2 mM L-glutamine, 1% penicillin/streptomycin.
(§2) To study the effect of each agent on cell growth, cells growing exponentially were added to 96-well plates at a density of 3×10^4/well. Drugs (0.1-100 μM) were then added to the wells, ensuring an equal volume of 200 μl across the plate. Cell number was measured at 72 hr using a standard methylthiazoletetrazolium (MTT)-based assay without modifications as described previously (Gordi et al., 2004, Toxicol. Lett. 147: 99-107). Briefly, MTT (Sigma) was added to each well to give a working concentration of 0.4 mg/ml, and plates returned to the incubator for a further 1 hr. After this time, the medium was aspirated off, 200 μl of DMSO was then added to each well, and plates agitated gently for 5 min before measuring optical density at 540 nm in each well.

HCT116^norm cells = experiment: MTT proliferation assay, 72 hr (Example 6.2); conditions: Homo sapiens, 72 h, MTT, mean ± SD of at least five experiments, read-out: IC50
Description: as §1, §2

A549 cells = experiment: MTT proliferation assay, 72 hr (Example 6.2); conditions: Homo sapiens, A549, 72 h, mean ± SD of at least five experiments
Description: as §1, §2

Bax = experiment: Immunoblotting analysis (Example 6.2)
Description: (§3) Cells were harvested and total cellular protein was solubilised in lysis buffer (New England Biolabs, Hitchin, UK) and resolved by Tris-glycine electrophoresis using a 4-12% bis-tris gradient-gel. Following transfer of proteins to 0.45 μm nitrocellulose membranes, blocking was performed in 5% (w/v) non-fat milk in TTBS [0.5% (v/v) Tween-20 in TBS (50 mM Tris, 150 mM NaCl, pH 8.0)]. Primary antibody probing was performed with anti-p21, anti-Bax, anti-CDK4, anti-cyclin D1, anti-pRb or anti-cyclin B1. All primary antibodies were obtained from New England Biolabs (Hitchin, UK) and used at a dilution of 1:1,000, unless stated otherwise. Anti-GAPDH was used as a loading control (1:2,000—New England). Following three washing steps in TTBS, horseradish peroxidase-conjugated anti-species IgG was used as the secondary antibody (Amersham Biosciences Ltd., Little Chalfont, UK). Bands were visualised by the ECL-plus detection system (Amersham).

cyclin B = experiment: Immunoblotting analysis (Example 6.2)
Description: as §3

HCT116^poly cells = experiment: MTT proliferation assay, 72 hr (Example 6.2); conditions: Homo sapiens, HCT116^poly (polyploid extended-passage variant)
Description: as §2

IC50 (MCF7 cells)	IC50 (HCT116^norm cells)	IC50 (A549 cells)	IC50 (HCT116^poly cells)	Structure (SMILES)	BAX level (Bax; HCT116^norm cells)	BAX level (Bax; HCT116^poly cells)	cyclin B level (cyclin B; HCT116^norm cells)	cyclin B level (cyclin B; HCT116^poly cells)
2.3 ± 0.94 µM	1.92 ± 0.35 µM	9.8 ± 1.7 µM	–	C[C@H]1[C@H](OC(=O)CCC(=O)O)O[C@@H]2O[C@@]3(C)CC[C@H]4[C@H](C)CC[C@@H]1[C@@]24OO3 [Artesunate, artesunate]	no effect	decrease	decrease	increase
1.9 ± 0.75 µM	–	14 ± 1.6 µM	15 µM	Nc1ccn([C@@H]2O[C@H](CO)[C@@H](O)C2(F)F)c(=O)n1 [Gemcitabine, gemcitabine]	–	–	–	–
